In patent US20240216357A1 (SICHUAN HUIYU PHARMACEUTICAL CO., LTD., priority 2021, published 2024) one finds IC50 data, which are given here for 27 compounds.

One assay relates to NCI-H1417 cells. The assay can be described thus: In vitro cell proliferation detection (CellTiter-Glo, 7 days). The class given is cell-based. Particulars: read-out: NCI-H1417 proliferation inhibition IC50. (Cellular ATP, detected with luciferase, serves as a proxy for viable cell number.)
A further assay deals with LSD1 (Homo sapiens (Human), UniProt O60341). The assay can be described thus: LSD1 enzyme activity detection (HTRF). The class given is biochemical. Particulars: read-out: Inhibition of enzymatic activity of LSD1 IC50.
[1] abbreviates: Homo sapiens, 168 h, NCI-H1417 cells, 7 days, CellTiter-Glo.

Where a name gives a salt, the structure may show the parent alone. Read-outs that look alike come from different tables or passages of the source.

`Cc1ccc(-c2c(-c3ccc(C#N)c(F)c3)nc(N(C)CCCN)n3ccnc23)cc1O` [Example 146, 4-(5-((3-aminopropyl) (methyl)amino)-8-(3-hydroxy-4-methylphenyl)imidazolo[1,2-c]pyrimidin-7-yl)-2-fluorobenzonitrile]: the IC50 amounted to 8.9 nM with NCI-H1417 cells (setting [1]) and 0.5 ± 0.2 nM on LSD1 (HTRF, H3K4me1 substrate).
As to `COc1ccc(-c2cnc(N3CCC(N)CC3)c(C#N)c2-c2ccc(C#N)c(F)c2)cc1` [Example 69, 2-(4-aminopiperidin-1-yl)-4-(4-cyano-3-fluorophenyl)-5-(4-methoxyphenyl) nicotinonitrile hydrochloride], the IC50 with NCI-H1417 cells (setting [1]) stood at 8.41 nM; at LSD1 (HTRF, H3K4me1 substrate), 3.9 ± 2.7 nM.
For `Cc1ccc(-c2c(-c3ccc(C#N)c(F)c3)nc(N3CCC(N)CC3)c(C)c2O)cc1O` [Example 65, 4-(6-(4-aminopiperidin-1-yl)-4-hydroxy-3-(3-hydroxy-4-methylphenyl)-5-methylpyridin-2-yl)-2-fluorobenzonitrile hydrochloride], in that order: 0.95 nM and 0.7 ± 0.4 nM.
In the same order, the values of `COc1ccc(-c2c(OCC3CC3)cc(N3CCC(N)CC3)nc2-c2ccc(C#N)c(F)c2)cc1O` [Example 108, 4-(6-(4-aminopiperidin-1-yl)-4-(cyclopropylmethoxy)-3-(3-hydroxy-4-methoxyphenyl)pyridin-2-yl)-2-fluorobenzonitrile hydrochloride] are 4.02 nM and 1.5 ± 0.7 nM.
Take `Cc1ccc(-c2c(-c3ccc(C#N)cc3)cc3c(N4CCN(C)CC4)nccn23)cc1` [Example 190, 4-(1-(4-methylpiperazin-1-yl)-6-(p-tolyl)pyrrolo [1,2-a]pyrazin-7-yl) benzonitrile]: the IC50 with NCI-H1417 cells (setting [1]) was 1120 nM; on LSD1 (HTRF, H3K4me1 substrate) it was 0.331 nM.
Take `N#Cc1ccc(-c2cc(C(=O)N3C4CCC3CC(N)C4)sc2-c2ccncn2)cc1F` (stereo not drawn) [Example 202, 4-(5-(3-amino-8-azabicyclo [3.2.1]octane-8-carbonyl)-2-(pyrimidin-4-yl)thiophen-3-yl)-2-fluoro-benzonitrile hydrochloride]: the IC50 in the assay with NCI-H1417 cells (setting [1]) is over 1000 nM; at LSD1 (HTRF, H3K4me1 substrate), 77.1 nM.
With `N#Cc1ccc(-c2nc(N3CCC(N)CC3)cc(O)c2-c2ccc(F)c(O)c2)cc1F` [Example 58, 4-(6-(4-aminopiperidin-1-yl)-3-(4-fluoro-3-hydroxyphenyl)-4-hydroxypyridin-2-yl)-2-fluorobenzonitrile], the IC50 worked out at 7.26 nM in the assay on NCI-H1417 cells (setting [1]) and 1.3 ± 0.4 nM at LSD1 (HTRF, H3K4me1 substrate).
In the case of `CS(=O)(=O)N1CCN(C(=O)c2cc(CN[C@@H]3C[C@H]3c3ccc(F)cc3)nc(-c3ccc(F)c(O)c3)n2)CC1` [Example 238, (2-(4-fluoro-3-hydroxy phenyl)-6-(((1R,2S)-2-(4-fluorophenyl)cyclo-propyl)amino)methyl) pyrimidin-4-yl)(4-(methyl-sulfonyl)piperazin-1-yl) methanone hydrochloride], the IC50 worked out at 5.31 nM in the assay on NCI-H1417 cells (setting [1]) and 98 ± 1 nM on LSD1 (HTRF, H3K4me1 substrate).
For the compound `N#Cc1ccc(-c2cc(C(=O)N3C4CCC3CC(N)C4)sc2-c2ccc3oc(=O)[nH]c3c2)cc1F` (stereo not drawn) [Example 214, 4-(5-(3-amino-8-azabicyclo [3.2.1]octan-8-carbonyl)-2-(2-carbonyl-2,3-dihydrobenzo[d]oxazol-5-yl)thiophen-3-yl)-2-fluoro benzonitrile hydrochloride], the IC50 came out at 493 nM in the assay with NCI-H1417 cells (setting [1]) and 0.47 ± 0.13 nM at LSD1 (HTRF, H3K4me1 substrate).
Turning to `CN(CCCN)c1nc(-c2ccc(C#N)c(F)c2)c(-c2ccc(OC(F)(F)F)c(O)c2)c2nccn12` [Example 153, 4-(5-((3-aminopropyl) (methyl)amino)-8-(3-hydroxy-4-(trifluoromethoxy)phenyl)imidazolo [1,2-c]pyrimidin-7-yl)-2-fluorobenzonitrile], the IC50 in the assay with NCI-H1417 cells (setting [1]) is 31.6 nM; at LSD1 (HTRF, H3K4me1 substrate) it was 5.2 ± 0.5 nM.
On to `Cc1noc2cc(-c3c(O)cc(N4C5CCC4CC(N)C5)nc3-c3ccc(C#N)c(F)c3)c(F)cc12` (stereo not drawn) [Example 24, 4-(6-(3-amino-8-azabicyclo[3.2.1]octane-8-yl)-3-(5-fluoro-3-methylbenzo[d]isoxazol-6-yl)-4-hydroxypyridin-2-yl)-2-fluorobenzonitrile], for which the IC50 with NCI-H1417 cells (setting [1]) came to 252 nM; on LSD1 (HTRF, H3K4me1 substrate), 21.5 ± 20.5 nM.
For `Cc1ccc(-c2c(-c3ccc(C#N)cc3)cc3c(N4CC(N)C4)nccn23)cc1` [Example 188, 4-(1-(3-aminoazetidin-1-yl)-6-(p-tolyl)pyrrolo[1,2-a]pyrazin-7-yl)benzonitrile hydrochloride], in that order: over 1000 nM and 35 nM.
Take `Cc1noc2cc(-c3oc(C(=O)N4C5CCC4CC(N)C5)cc3-c3ccc(C#N)c(F)c3)c(F)cc12` (stereo not drawn) [Example 219, 4-(5-(3-amino-8-azabicyclo[3.2.1]octane-8-carbonyl)-2-(5-fluoro-3-methylbenzo[d]isoxazol-6-yl)furan-3-yl)-2-fluorobenzonitrile hydrochloride]: the IC50 in the assay on NCI-H1417 cells (setting [1]) stood at 95.3 nM; at LSD1 it was 7.3 ± 0.46 nM.
In the case of `COc1ccc(-c2c(OCC3CCC3)cc(N3CCC(N)CC3)nc2-c2ccc(C#N)c(F)c2)cc1O` [Example 107, 4-(6-(4-aminopiperidin-1-yl)-4-(cyclobutylmethoxy)-3-(3-hydroxy-4-methoxyphenyl)pyridin-2-yl)-2-fluorobenzonitrile hydrochloride], the IC50 in the assay on NCI-H1417 cells (setting [1]) stood at 8.35 nM; at LSD1 (HTRF, H3K4me1 substrate), 2.5 ± 1.7 nM.
For the compound `COc1ccc(-c2c(O)cc(N3CCN(C)CC3)nc2-c2ccc(C#N)c(F)c2)cc1F` [Example 15, 2-fluoro-4-(3-(3-fluoro-4-methoxyphenyl)-4-hydroxy-6-(4-methylpiperazin-1-yl)pyridin-2-yl)benzonitrile], the IC50 with NCI-H1417 cells (setting [1]) was 104 nM; on LSD1 (HTRF, H3K4me1 substrate), 49.9 nM.
Consider `Cc1ccc(-c2c(-c3ccc(C#N)c(F)c3)nc(N3CCC(N)CC3)c3ccoc23)cc1O` [Example 268, 4-(4-(4-aminopiperidin-1-yl)-7-(3-hydroxy-4-methylphenyl)furan[3,2-c]pyridin-6-yl)-2-fluorobe nzonitrile hydrochloride], for which the IC50 turned out to be 0.378 nM in the assay on NCI-H1417 cells and 1.5 ± 0.5 nM on LSD1.
`COc1ccc(-c2c(-c3ccc(C#N)c(F)c3)nc(N3CCC(N)CC3)n3c(C)cnc23)cc1O` [Example 187, 4-(5-(4-aminopiperidin-1-yl)-8-(3-hydroxy-4-methoxyphenyl)-3-methylimidazolo[1,2-c]pyrimidin-7-yl)-2-fluorobenzonitrile]: the IC50 in the assay on NCI-H1417 cells (setting [1]) was 1.11 nM; at LSD1 (HTRF, H3K4me1 substrate) it was 0.8 ± 0.1 nM.
With `Cc1ccc(-c2c(-c3ccc(C#N)c(F)c3)nc(N3CC4CCC(C3)C4N)n3ccnc23)cc1O` (stereo not drawn) [Example 159, 4-(5-(8-amino-3-azabicyclo[3. 2.1]octane-3-yl)-8-(3-hydroxy-4-methylphenyl)imidazolo[1,2-c]pyrimidin-7-yl)-2-fluorobenzonitrile], the IC50 is 5.82 nM with NCI-H1417 cells (setting [1]) and 2.8 ± 1 nM on LSD1 (HTRF, H3K4me1 substrate).
For `N#Cc1ccc(-c2c(-c3ccc(N4CCOCC4)c(O)c3)cnc(N3CCC(N)CC3)c2C#N)cc1F` [Example 85, 2-(4-aminopiperidin-1-yl)-4-(4-cyano-3-fluorophenyl)-5-(3-hydroxy-4-morpholinophenyl) nicotinonitrile hydrochloride], in that order: 0.76 nM and 0.6 nM.
For `COc1ccc(-c2c(-c3ccc(C#N)c(F)c3)nc(N3CCC(N)CC3)c(C)c2OC)cc1O` [Example 101, 4-(6-(4-aminopiperidin-1-yl)-3-(3-hydroxy-4-methoxyphenyl)-4-methoxy-5-methylpyridin-2-yl)-2-fluorobenzonitrile], the IC50 in the assay on NCI-H1417 cells (setting [1]) turned out to be 0.917 nM; on LSD1 (HTRF, H3K4me1 substrate) it was 1 ± 0.2 nM.
In the same order, the values of `Cc1ccc(-c2c(-c3ccc(C#N)c(F)c3)nc(N3CCC(C)(N)CC3)n3ccnc23)cc1O` [Example 145, 4-(5-(4-amino-4-methylpiperidin-1-yl)-8-(3-hydroxy-4-methylphenyl)imidazolo[1,2-c]pyrimidin-7-yl)-2-fluorobenzonitrile] are 2.42 nM and 1 ± 0.2 nM.
In the same order, the values of `Cc1nc(N2CCC(N)CC2)c(C#N)c(-c2ccc(C#N)c(F)c2)c1-c1cc2onc(C)c2cc1F` [Example 277, 2-(4-aminopiperidin-1-yl)-4-(4-cyano-3-fluorophenyl)-5-(5-fluoro-3-methylbenzo[d]isoxazol-6-yl)-6-methylnicotinonitrile] are 1.33 nM and 0.39 nM.
Turning to `CC(C)(O)Cc1ccc(-c2c(O)cc(N3CCC(N)CC3)nc2-c2ccc(C#N)c(F)c2)cc1F` [Example 39, 4-(6-(4-aminopiperidin-1-yl)-3-(3-fluoro-4-(2-hydroxy-2-methylpropyl)phenyl)-4-hydroxypyridin-2-yl)-2-fluorobenzonitrile hydrochloride], the IC50 in the assay on NCI-H1417 cells (setting [1]) turned out to be 121 nM; on LSD1 (HTRF, H3K4me1 substrate) it was 21.5 ± 7.6 nM.
For the compound `COc1ccc(C2CC2NCc2c(OC)cc(N3CCC(N)CC3)nc2-c2ccc(C#N)c(F)c2)cc1F` (stereo not drawn) [Example 252], the IC50 in the assay on NCI-H1417 cells (NCI-H1417 cells, 7 days, CellTiter-Glo) was over 1000 nM; at LSD1 (HTRF, H3K4me1 substrate), 73.7 nM.
On to `COc1ccc(-c2c(OC)cc(N3CCC(N)CC3)nc2-c2ccc(C#N)c(F)c2)cc1C#N` [Example 93, 4-(6-(4-aminopiperidin-1-yl)-3-(3-cyano-4-methoxyphenyl)-4-methoxypyridin-2-yl)-2-fluorobenzonitrile], for which the IC50 is 30.7 nM in the assay with NCI-H1417 cells (setting [1]) and 153 nM on LSD1 (HTRF, H3K4me1 substrate).
Take `CC1(N)CCN(c2nc(-c3ccc(C#N)c(F)c3)c(-c3ccc(F)c(O)c3)c3nccn23)CC1` [Example 147, 4-(5-(4-amino-4-methylpiperidin-1-yl)-8-(4-fluoro-3-hydroxyphenyl)imidazolo[1,2-c]pyrimidin-7-yl)-2-fluorobenzonitrile]: the IC50 in the assay on NCI-H1417 cells (setting [1]) is 8 nM; on LSD1 (HTRF, H3K4me1 substrate), 11.5 ± 4.4 nM.
Consider `COc1ccc(-c2c(-c3ccc(C#N)cc3)nc(N3C4CCC3CC(N)C4)n3ccnc23)cc1F` (stereo not drawn) [Example 178, 4-(5-(3-amino-8-azabicyclo [3.2.1]octane-8-yl)-8-(3-fluoro-4-methoxyphenyl)imidazolo[1,2-c]pyrimidin-7-yl) benzonitrile hydrochloride], for which the IC50 amounted to 6.24 nM in the assay on NCI-H1417 cells (setting [1]) and 3.8 ± 2.2 nM on LSD1 (HTRF, H3K4me1 substrate).
